# Results from PubChem BioAssay (NCI).
#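 Step 1: Grow cells in 96-well plates. Step 2: Expose to compound for 48 hours at 5 concentrations. Step 3: Interpolate endpoints linearly; if unreached, use highest concentration. TGI: concentration producing complete growth inhibition.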
# Tests used:
# Experiment in all cases: NCI tumour cell line growth inhibition, 48 h
# [1] = test system: A498 renal
# [2] = test system: A549 NSCLC
# [3] = test system: CAKI-1 renal
# [4] = test system: CCRF-CEM leukemia
# [5] = test system: COLO 205 colon
# [6] = test system: DLD-1 colon
# [7] = test system: DMS 114 small cell lung
# [8] = test system: DMS 273 small cell lung
# [9] = test system: EKVX NSCLC
# [10] = test system: HCC-2998 colon
# [11] = test system: HCT-116 colon
# [12] = test system: HCT-15 colon
# [13] = test system: HL-60(TB) leukemia
# [14] = test system: HOP-18 NSCLC
# [15] = test system: HOP-62 NSCLC
# [16] = test system: HOP-92 NSCLC
# [17] = test system: HT29 colon
# [18] = test system: IGROV1 ovarian
# [19] = test system: K-562 leukemia
# [20] = test system: KM20L2 colon
# [21] = test system: LOX IMVI melanoma
# [22] = test system: M19-MEL melanoma
# [23] = test system: MALME-3M melanoma
# [24] = test system: MCF7 breast
# [25] = test system: NCI-H226 lung
# [26] = test system: NCI-H23 lung
# [27] = test system: NCI-H460 lung
# [28] = test system: NCI-H522 lung
# [29] = test system: NCI/ADR-RES ovarian
# [30] = test system: OVCAR-3 ovarian
# [31] = test system: OVCAR-4 ovarian
# [32] = test system: OVCAR-5 ovarian
# [33] = test system: OVCAR-8 ovarian
# [34] = test system: P388/ADR leukemia
# [35] = test system: RXF 393 renal
# [36] = test system: SF-268 CNS
# [37] = test system: SF-295 CNS
# [38] = test system: SF-539 CNS
# [39] = test system: SK-MEL-2 melanoma
# [40] = test system: SK-MEL-28 melanoma
# [41] = test system: SK-MEL-5 melanoma
# [42] = test system: SK-OV-3 ovarian
# [43] = test system: SN12C renal
# [44] = test system: SN12K1 renal
# [45] = test system: SNB-19 CNS
# [46] = test system: SNB-75 CNS
# [47] = test system: SNB-78 CNS
# [48] = test system: SW-620 colon
# [49] = test system: U251 CNS
# [50] = test system: UACC-257 melanoma
# [51] = test system: UACC-62 melanoma
# [52] = test system: UO-31 renal
# [53] = test system: XF 498 CNS
# [54] = test system: KM12 colon
# [55] = test system: P388 leukemia
# [56] = test system: 786-0 renal
# [57] = test system: ACHN renal
# [58] = test system: LXFL 529 NSCLC
# [59] = test system: M14 melanoma
# [60] = test system: MOLT-4 leukemia
# [61] = test system: RPMI-8226 leukemia
# [62] = test system: RXF-631 renal
# [63] = test system: SR leukemia
# [64] = test system: TK-10 renal
smiles,measurement,setting,value
O=C1c2cccc3cc4ccccc4c(c23)C(=O)N1CCNCCN1C(=O)c2cccc3cc4ccccc4c(c23)C1=O,TGI,[1],2.26 µM
same,TGI,[2],0.982 µM
same,TGI,[3],1.04 µM
same,TGI,[4],1.04 µM
same,TGI,[5],2.22 µM
same,TGI,[6],3.8 µM
same,TGI,[7],0.78 µM
same,TGI,[8],1 µM
same,TGI,[9],2.23 µM
same,TGI,[10],2.23 µM
same,TGI,[11],1.98 µM
same,TGI,[12],1.53 µM
same,TGI,[13],0.619 µM
same,TGI,[14],0.879 µM
same,TGI,[15],4.92 µM
same,TGI,[16],1.75 µM
same,TGI,[17],1.69 µM
same,TGI,[18],3.56 µM
same,TGI,[19],1.47 µM
same,TGI,[20],2.22 µM
same,TGI,[21],1.27 µM
same,TGI,[22],1.78 µM
same,TGI,[23],1.77 µM
same,TGI,[24],5.17 µM
same,TGI,[25],6.12 µM
same,TGI,[26],1.21 µM
same,TGI,[27],0.278 µM
same,TGI,[28],3.6 µM
same,TGI,[29],3.11 µM
same,TGI,[30],2.41 µM
same,TGI,[31],2.14 µM
same,TGI,[32],1.77 µM
same,TGI,[33],2.31 µM
same,TGI,[34],0.611 µM
same,TGI,[35],1.82 µM
same,TGI,[36],2.55 µM
same,TGI,[37],0.906 µM
same,TGI,[38],2.2 µM
same,TGI,[39],3.15 µM
same,TGI,[40],2.65 µM
same,TGI,[41],1.84 µM
same,TGI,[42],5.8 µM
same,TGI,[43],1.59 µM
same,TGI,[44],6.96 µM
same,TGI,[45],2.11 µM
same,TGI,[46],1.27 µM
same,TGI,[47],1.82 µM
same,TGI,[48],1.87 µM
same,TGI,[49],1.24 µM
same,TGI,[50],2.74 µM
same,TGI,[51],1.13 µM
same,TGI,[52],1.57 µM
same,TGI,[53],0.82 µM
CC(C)(C)c1ccc2c(c1)OP1(Oc3cccc4cccnc34)(O2)Oc2ccc(C(C)(C)C)cc2O1,TGI,[1],34.9 µM
same,TGI,[2],> 54.7 µM
same,TGI,[3],> 23.5 µM
same,TGI,[4],> 25.2 µM
same,TGI,[5],9.02 µM
same,TGI,[6],21.2 µM
same,TGI,[7],5.97 µM
same,TGI,[8],13.8 µM
same,TGI,[9],35.9 µM
same,TGI,[10],24.1 µM
same,TGI,[11],15.2 µM
same,TGI,[12],15.3 µM
same,TGI,[13],6.82 µM
same,TGI,[14],> 60.5 µM
same,TGI,[15],62.1 µM
same,TGI,[16],> 100 µM
same,TGI,[17],15.4 µM
same,TGI,[18],18.3 µM
same,TGI,[19],37.5 µM
same,TGI,[54],21.3 µM
same,TGI,[20],15.4 µM
same,TGI,[21],17.7 µM
same,TGI,[22],33.5 µM
same,TGI,[23],51.3 µM
same,TGI,[24],5.48 µM
same,TGI,[25],30.9 µM
same,TGI,[26],10.2 µM
same,TGI,[27],12.7 µM
same,TGI,[28],26.4 µM
same,TGI,[29],11.1 µM
same,TGI,[30],6.44 µM
same,TGI,[31],6.14 µM
same,TGI,[32],32 µM
same,TGI,[33],> 100 µM
same,TGI,[55],2.64 µM
same,TGI,[34],4.69 µM
same,TGI,[35],16.9 µM
same,TGI,[36],26.7 µM
same,TGI,[37],42.6 µM
same,TGI,[38],30.2 µM
same,TGI,[39],43.8 µM
same,TGI,[40],> 84.9 µM
same,TGI,[41],13.7 µM
same,TGI,[42],> 92.1 µM
same,TGI,[43],52.9 µM
same,TGI,[44],14.2 µM
same,TGI,[45],> 100 µM
same,TGI,[46],> 54.2 µM
same,TGI,[47],> 100 µM
same,TGI,[48],> 31.8 µM
same,TGI,[49],43.8 µM
same,TGI,[50],> 30.4 µM
same,TGI,[51],12.2 µM
same,TGI,[52],13.4 µM
same,TGI,[53],7.56 µM
Cc1cccc(C)c1NC(=O)CCC(=O)NNc1nnc(C)n1N,TGI,[56],> 100 µM
same,TGI,[1],> 100 µM
same,TGI,[2],> 100 µM
same,TGI,[57],> 100 µM
same,TGI,[3],> 100 µM
same,TGI,[4],> 100 µM
same,TGI,[5],> 100 µM
same,TGI,[6],> 100 µM
same,TGI,[7],> 100 µM
same,TGI,[8],> 100 µM
same,TGI,[9],> 100 µM
same,TGI,[10],> 100 µM
same,TGI,[11],> 100 µM
same,TGI,[12],> 100 µM
same,TGI,[13],> 100 µM
same,TGI,[14],> 100 µM
same,TGI,[15],> 100 µM
same,TGI,[16],> 100 µM
same,TGI,[17],> 100 µM
same,TGI,[18],> 100 µM
same,TGI,[19],> 100 µM
same,TGI,[54],> 100 µM
same,TGI,[20],> 100 µM
same,TGI,[21],> 100 µM
same,TGI,[58],> 100 µM
same,TGI,[59],> 100 µM
same,TGI,[22],> 100 µM
same,TGI,[23],> 100 µM
same,TGI,[60],> 100 µM
same,TGI,[25],> 100 µM
same,TGI,[26],> 100 µM
same,TGI,[27],> 100 µM
same,TGI,[28],> 100 µM
same,TGI,[30],> 100 µM
same,TGI,[31],> 100 µM
same,TGI,[32],> 100 µM
same,TGI,[33],> 100 µM
same,TGI,[61],> 100 µM
same,TGI,[35],> 100 µM
same,TGI,[62],> 100 µM
same,TGI,[36],> 100 µM
same,TGI,[37],> 100 µM
same,TGI,[38],> 100 µM
same,TGI,[39],> 100 µM
same,TGI,[40],> 100 µM
same,TGI,[41],> 100 µM
same,TGI,[42],> 100 µM
same,TGI,[43],> 100 µM
same,TGI,[45],> 100 µM
same,TGI,[46],> 100 µM
same,TGI,[47],> 100 µM
same,TGI,[63],> 100 µM
same,TGI,[48],> 100 µM
same,TGI,[64],> 100 µM
same,TGI,[49],> 100 µM
same,TGI,[50],> 100 µM
same,TGI,[51],> 100 µM
same,TGI,[52],> 100 µM
same,TGI,[53],> 100 µM
